Values joined by “and” are separate entries in the source; they are usually repeats but may differ in a detail not shown here. Equal values may be shown once. Read-outs that look alike come from different tables or passages of the source.
Assays:
Assay type in all cases: cell-based
[1] = system: Alternaria solani; test: Alternaria solani / liquid culture; details: for inhibition at 0.0031 ppm: 1.001 0.0031 ppm
Description: (§1) Mycelia fragments or conidia suspensions of a fungus, prepared either freshly from liquid cultures of the fungus or from cryogenic storage, were directly mixed into nutrient broth. DMSO solutions of the test compound (max. 10 mg/ml) was diluted with 0.025% Tween20 by factor 50 and 10 μl of this solution was pipetted into a microtiter plate (96-well format). The nutrient broth containing the fungal spores/mycelia fragments was then added to give an end concentration of the tested compound. The test plates were incubated in the dark at 24° C. and 96% rh. The inhibition of fungal growth was determined photometrically and visually after 2-4 days, depending on the pathosystem, and percent antifungal activity relative to the untreated check was calculated.
(§2) Conidia of the fungus from cryogenic storage were directly mixed into nutrient broth (PDB potato dextrose broth). After placing a (DMSO) solution of test compound into a microtiter plate (96-well format), the nutrient broth containing the fungal spores was added.

[2] = system: Fusarium culmorum; test: Fusarium culmorum / liquid culture
Description: as §1, with “The nutrient broth containing the fungal spores/mycelia fragments was then added to give an end concentration of the tested compound.” left out
as §2

[3] = system: Gaeumannomyces graminis; test: Gaeumannomyces graminis / liquid culture; details: for inhibition at 0.1 ppm: 1.001 0.1000 ppm
Description: as §1
Mycelial fragments of the fungus from cryogenic storage were directly mixed into nutrient broth (PDB potato dextrose broth). After placing a (DMSO) solution of test compound into a microtiter plate (96-well format), the nutrient broth containing the fungal spores was added.

Question: Which observed % activity ([1]; 1.001 0.0004 ppm) does the source give for `CON(C(=O)c1cn(C)nc1C(F)F)C(C)Cc1c(Cl)cc(Cl)cc1Cl` (stereo not drawn) [Compound 1.001, 3-(difluoromethyl)-N-methoxy-1-methyl-N-[1-methyl-2-(2,4,6-trichlorophenyl)ethyl]pyrazole-4-carboxamide] here?
Answer: The observed % activity was 11% and 10%.

Question: And the observed % activity ([1]; 1.001 0.0008 ppm)?
Answer: The observed % activity was 24%.

Question: And the observed % activity ([1]; 1.001 0.0016 ppm)?
Answer: Its observed % activity is 40% and 46%.

Question: What about the inhibition at 0.0004 ppm ([1]; Alternaria solani, 1.001 0.0004 ppm, read-out: observed % activity) of the same compound?
Answer: The inhibition at 0.0004 ppm was 9%.

Question: What about the inhibition at 0.0063 ppm ([1]; Alternaria solani, 1.001 0.0063 ppm, read-out: observed % activity) of the same compound?
Answer: Its inhibition at 0.0063 ppm is 75%.

Question: What about the inhibition at 0.0008 ppm ([1]; Alternaria solani, B1.2, 1.001 0.0008 ppm, read-out: observed % activity) of the same compound?
Answer: The inhibition at 0.0008 ppm was 4%.

Question: And the inhibition at 0.0016 ppm ([1]; Alternaria solani, B1.2, 1.001 0.0016 ppm, read-out: observed % activity)?
Answer: The inhibition at 0.0016 ppm was 32%.

Question: And the inhibition at 0.0031 ppm ([1]; Alternaria solani, B1.2, read-out: observed % activity)?
Answer: The inhibition at 0.0031 ppm was 64%.

Question: What about the inhibition at 0.0016 ppm ([1]; Alternaria solani, B2.2, 1.001 0.0016 ppm, read-out: observed % activity) of the same compound?
Answer: The inhibition at 0.0016 ppm was 39%.

Question: What about the inhibition at 0.0016 ppm ([1]; Alternaria solani, B3.2, 1.001 0.0016 ppm, read-out: observed % activity) of the same compound?
Answer: Its inhibition at 0.0016 ppm is 45%.

Question: And the inhibition at 0.0031 ppm ([1]; Alternaria solani, B3.2, read-out: observed % activity)?
Answer: The inhibition at 0.0031 ppm was 66%.

Question: What about the inhibition at 0.0008 ppm ([1]; Alternaria solani, B4.2, 1.001 0.0008 ppm, read-out: observed % activity) of the same compound?
Answer: Its inhibition at 0.0008 ppm is 29%.

Question: And the inhibition at 0.0016 ppm ([1]; Alternaria solani, B4.2, 1.001 0.0016 ppm, read-out: observed % activity)?
Answer: The inhibition at 0.0016 ppm was 47%.

Question: And the inhibition at 0.0031 ppm ([1]; Alternaria solani, B4.2, read-out: observed % activity)?
Answer: The inhibition at 0.0031 ppm was 73%.

Question: What about the inhibition at 0.0008 ppm ([1]; Alternaria solani, B5.2, 1.001 0.0008 ppm, read-out: observed % activity) of the same compound?
Answer: Its inhibition at 0.0008 ppm is 3%.

Question: What about the inhibition at 0.0016 ppm ([1]; Alternaria solani, B5.2, 1.001 0.0016 ppm, read-out: observed % activity) of the same compound?
Answer: Its inhibition at 0.0016 ppm is 36%.

Question: What about the inhibition at 0.0031 ppm ([1]; Alternaria solani, B5.2, read-out: observed % activity) of the same compound?
Answer: Its inhibition at 0.0031 ppm is 75%.

Question: What about the inhibition at 0.0016 ppm ([1]; Alternaria solani, B6.2, 1.001 0.0016 ppm, read-out: observed % activity) of the same compound?
Answer: The inhibition at 0.0016 ppm was 35%.

Question: And the inhibition at 0.0031 ppm ([1]; Alternaria solani, B6.2, read-out: observed % activity)?
Answer: The inhibition at 0.0031 ppm was 71%.

Question: And the inhibition at 0.0016 ppm ([1]; Alternaria solani, B9.2, 1.001 0.0016 ppm, read-out: observed % activity)?
Answer: The inhibition at 0.0016 ppm was 37%.

Question: And the inhibition at 0.0031 ppm ([1]; Alternaria solani, B9.2, read-out: observed % activity)?
Answer: Its inhibition at 0.0031 ppm is 67%.

Question: What about the observed % activity ([2]; 1.001 0.0125 ppm) of the same compound?
Answer: Its observed % activity is 11% and 16% and 7% and 10% and 6%.

Question: What about the observed % activity ([2]; 1.001 0.0250 ppm) of the same compound?
Answer: The observed % activity was 24% and 28% and 34%.

Question: What about the observed % activity ([2]; 1.001 0.0500 ppm) of the same compound?
Answer: Its observed % activity is 46% and 54%.

Question: What about the observed % activity ([2]; 1.001 0.1000 ppm) of the same compound?
Answer: The observed % activity was 50% and 56% and 52% and 57%.

Question: What about the inhibition at 0.0063 ppm ([2]; Fusarium culmorum, 1.001 0.0063 ppm, read-out: observed % activity) of the same compound?
Answer: The inhibition at 0.0063 ppm was 9%.

Question: What about the inhibition at 0.05 ppm ([2]; Fusarium culmorum, 1.001 0.0500 ppm (Table B54), read-out: observed % activity) of the same compound?
Answer: Its inhibition at 0.05 ppm is 51%.

Question: And the inhibition at 0.05 ppm ([2]; Fusarium culmorum, 1.001 0.0500 ppm, read-out: observed % activity)?
Answer: The inhibition at 0.05 ppm was 49%.

Question: What about the inhibition at 0.1 ppm ([2]; Fusarium culmorum, 1.001 0.1000 ppm (Table B54), read-out: observed % activity) of the same compound?
Answer: Its inhibition at 0.1 ppm is 55%.

Question: And the inhibition at 0.1 ppm ([2]; Fusarium culmorum, 1.001 0.1000 ppm, read-out: observed % activity)?
Answer: The inhibition at 0.1 ppm was 58%.

Question: What about the inhibition at 0.2 ppm ([2]; Fusarium culmorum, 1.001 0.2000 ppm (Table B54), read-out: observed % activity) of the same compound?
Answer: The inhibition at 0.2 ppm was 60%.

Question: And the inhibition at 0.2 ppm ([2]; Fusarium culmorum, 1.001 0.2000 ppm, read-out: observed % activity)?
Answer: Its inhibition at 0.2 ppm is 60%.

Question: And the inhibition at 0.025 ppm ([2]; Fusarium culmorum, B3.3, 1.001 0.0250 ppm, read-out: observed % activity)?
Answer: The inhibition at 0.025 ppm was 19%.

Question: What about the inhibition at 0.05 ppm ([2]; Fusarium culmorum, B3.3, 1.001 0.0500 ppm, read-out: observed % activity) of the same compound?
Answer: Its inhibition at 0.05 ppm is 48%.

Question: And the inhibition at 0.1 ppm ([2]; Fusarium culmorum, B3.3, 1.001 0.1000 ppm, read-out: observed % activity)?
Answer: The inhibition at 0.1 ppm was 55%.

Question: What about the inhibition at 0.2 ppm ([2]; Fusarium culmorum, B3.3, 1.001 0.2000 ppm, read-out: observed % activity) of the same compound?
Answer: The inhibition at 0.2 ppm was 59%.

Question: And the inhibition at 0.025 ppm ([2]; Fusarium culmorum, B5.3, 1.001 0.0250 ppm, read-out: observed % activity)?
Answer: The inhibition at 0.025 ppm was 9%.

Question: And the inhibition at 0.05 ppm ([2]; Fusarium culmorum, B5.3, 1.001 0.0500 ppm, read-out: observed % activity)?
Answer: The inhibition at 0.05 ppm was 39%.

Question: What about the observed % activity ([3]; 1.001 0.0063 ppm) of the same compound?
Answer: The observed % activity was 10%.

Question: And the observed % activity ([3]; 1.001 0.0125 ppm)?
Answer: Its observed % activity is 1%.

Question: What about the observed % activity ([3]; 1.001 0.0250 ppm) of the same compound?
Answer: The observed % activity was 6%.

Question: And the observed % activity ([3]; 1.001 0.0500 ppm)?
Answer: The observed % activity was 3% and 1% and 9%.

Question: What about the inhibition at 0.0016 ppm ([3]; Gaeumannomyces graminis, 1.001 0.0016 ppm, read-out: observed % activity) of the same compound?
Answer: Its inhibition at 0.0016 ppm is 0%.

Question: And the inhibition at 0.2 ppm ([3]; Gaeumannomyces graminis, B1.1, 1.001 0.2000 ppm, read-out: observed % activity)?
Answer: Its inhibition at 0.2 ppm is 7%.

Question: And the inhibition at 0.0125 ppm ([3]; Gaeumannomyces graminis, B2.1, 1.001 0.0125 ppm, read-out: observed % activity)?
Answer: Its inhibition at 0.0125 ppm is 0%.

Question: What about the inhibition at 0.025 ppm ([3]; Gaeumannomyces graminis, B2.1, 1.001 0.0250 ppm, read-out: observed % activity) of the same compound?
Answer: The inhibition at 0.025 ppm was 4%.

Question: And the inhibition at 0.05 ppm ([3]; Gaeumannomyces graminis, B2.1, 1.001 0.0500 ppm, read-out: observed % activity)?
Answer: The inhibition at 0.05 ppm was 0%.

Question: What about the inhibition at 0.1 ppm ([3]; Gaeumannomyces graminis, B2.1, read-out: observed % activity) of the same compound?
Answer: Its inhibition at 0.1 ppm is 0%.

Question: What about the inhibition at 0.0031 ppm ([3]; Gaeumannomyces graminis, B3.1, 1.001 0.0031 ppm, read-out: observed % activity) of the same compound?
Answer: Its inhibition at 0.0031 ppm is 0%.

Question: And the inhibition at 0.0063 ppm ([3]; Gaeumannomyces graminis, B3.1, 1.001 0.0063 ppm, read-out: observed % activity)?
Answer: Its inhibition at 0.0063 ppm is 0%.

Question: And the inhibition at 0.0125 ppm ([3]; Gaeumannomyces graminis, B3.1, 1.001 0.0125 ppm, read-out: observed % activity)?
Answer: The inhibition at 0.0125 ppm was 8%.

Question: And the inhibition at 0.025 ppm ([3]; Gaeumannomyces graminis, B3.1, 1.001 0.0250 ppm, read-out: observed % activity)?
Answer: Its inhibition at 0.025 ppm is 0%.

Question: And the inhibition at 0.05 ppm ([3]; Gaeumannomyces graminis, B3.1, 1.001 0.0500 ppm, read-out: observed % activity)?
Answer: Its inhibition at 0.05 ppm is 0%.

Question: What about the inhibition at 0.0125 ppm ([3]; Gaeumannomyces graminis, B4.1, 1.001 0.0125 ppm, read-out: observed % activity) of the same compound?
Answer: Its inhibition at 0.0125 ppm is 0%.

Question: And the inhibition at 0.025 ppm ([3]; Gaeumannomyces graminis, B4.1, 1.001 0.0250 ppm, read-out: observed % activity)?
Answer: The inhibition at 0.025 ppm was 0%.

Question: What about the inhibition at 0.05 ppm ([3]; Gaeumannomyces graminis, B4.1, 1.001 0.0500 ppm, read-out: observed % activity) of the same compound?
Answer: The inhibition at 0.05 ppm was 0%.

Question: What about the inhibition at 0.1 ppm ([3]; Gaeumannomyces graminis, B4.1, read-out: observed % activity) of the same compound?
Answer: The inhibition at 0.1 ppm was 0%.

From patent US10588315B2, “Fungicidal compositions” (Syngenta Participations AG, priority 2012, dated 2020)
